Test results from patent US20220218725A1, “METHODS AND MATERIALS FOR TREATING CANCER” (Mayo Foundation for Medical Education and Research, priority 2019, published 2022).

Tested on: U2OS cells transfected with nuclear export reporter construct (NLS-GFP-NES)
Experiment: Nuclear export efficiency assay (NLS-GFP-NES reporter)
Assay type: cell-based
Settings: 24 hours, KPT-330 at 0.5 μM, 100 reporter-expressing cells scored
Description: A GFP reporter construct was made using the backbone of pEGFP-N1 vector. Specifically, the green fluorescence (GFP) was in-frame tagged with 3 consecutive copies of nuclear localization sequence (NLS) of SV40 large T antigen to the N-terminus and 3 consecutive copies of nuclear export sequences (NES) of HIV Rev to the C-terminus. The resulting construct encodes NLS-GFP-NES fusion protein capable of shuttling freely between the nucleus and the cytoplasm. The construct DNA was transfection into U2OS cells using Lipofectamine 2000 reagent (Life Technologies) according to product instruction. Six hours post transfection, the cells were treated with vehicle, CS, KPT-330, and K+CS for 24 hours. Finally, the treated cells were fixed with 4% PFA, and permeabilized, and stained for endogenous expression of CRM1 protein with anti-CRM1 antibody (Cell Signaling, Danvers, Mass.; catalog number: 46249, dilution 1:1500). Cell images were collected on a Zeiss LSM 780 confocal microscope.

Question: How did the “cells with complete nuclear localization of GFP” value turn out when `O=C(/C=C\n1cnc(-c2cc(C(F)(F)F)cc(C(F)(F)F)c2)n1)NNc1cnccn1` [KPT-330, (Z)-3-[3-[3,5-bis (trifluoromethyl)phenyl]-1,2,4-triazol-1-yl]-N′-pyrazin-2-ylprop-2-enehydrazide] was run?
Answer: The value was 28%.
